Data reported in patent US7816408B2, “Calcium receptor active compounds” (NPS Pharmaceuticals, Inc., priority 2002, dated 2010).

Key:
normal male SD rats = test: Plasma Ca^2+ level of rats after single oral administration; format: in vivo; conditions: rat, mean of six animals; for Plasma Ca^2+ (mmol/l) 1 hr: 1 hr after single oral dose 30 μmol/kg; for Plasma Ca^2+ (mmol/l) 2 hr: 2 hr after single oral dose 30 μmol/kg; for Plasma Ca^2+ (mmol/l) 4 hr: 4 hr after single oral dose 30 μmol/kg; for Plasma Ca^2+ (mmol/l) 8 hr: 8 hr after single oral dose 30 μmol/kg; for Plasma Ca^2+ (mmol/l) 24 hr: 24 hr after single oral dose 30 μmol/kg; for Plasma Ca^2+ (mmol/l) 48 hr: 48 hr after single oral dose 30 μmol/kg, vehicle 10% cyclodextrin; for Plasma Ca^2+ (mmol/l) 23 hr (footnote *c, 24 hr column): 23 hr after single oral dose 30 μmol/kg
Procedure, shortened: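 Normal male SD rats (n=6/group) received a single oral dose of 30 μmol/kg in 10% cyclodextrin or, for some compounds, 1% sodium-CMC; vehicle controls received 2.5 ml/kg. Tail blood was drawn pre-dose and at 30 min and 1, 2, 4, 8 and 24 h for plasma Ca^2+ and serum PTH. PTH was compared with vehicle by Steel's test.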

human calcium receptor = molecular target: T1, human calcium receptor (Homo sapiens, UniProt P41180); test: Activity on calcium receptors: fluo-3 fluorescence in HEK293 cells transfected with human calcium receptor gene; format: cell-based; conditions: HEK293 cells transfected with plasmid pHuPCaR4.0 (human calcium receptor gene), loaded with fluo-3; 1 mM CaCl2, 1 mM MgCl2
T1 construct: expressed in transfected cells; host or cells: HEK293
T1 sequence (P41180 20-1078): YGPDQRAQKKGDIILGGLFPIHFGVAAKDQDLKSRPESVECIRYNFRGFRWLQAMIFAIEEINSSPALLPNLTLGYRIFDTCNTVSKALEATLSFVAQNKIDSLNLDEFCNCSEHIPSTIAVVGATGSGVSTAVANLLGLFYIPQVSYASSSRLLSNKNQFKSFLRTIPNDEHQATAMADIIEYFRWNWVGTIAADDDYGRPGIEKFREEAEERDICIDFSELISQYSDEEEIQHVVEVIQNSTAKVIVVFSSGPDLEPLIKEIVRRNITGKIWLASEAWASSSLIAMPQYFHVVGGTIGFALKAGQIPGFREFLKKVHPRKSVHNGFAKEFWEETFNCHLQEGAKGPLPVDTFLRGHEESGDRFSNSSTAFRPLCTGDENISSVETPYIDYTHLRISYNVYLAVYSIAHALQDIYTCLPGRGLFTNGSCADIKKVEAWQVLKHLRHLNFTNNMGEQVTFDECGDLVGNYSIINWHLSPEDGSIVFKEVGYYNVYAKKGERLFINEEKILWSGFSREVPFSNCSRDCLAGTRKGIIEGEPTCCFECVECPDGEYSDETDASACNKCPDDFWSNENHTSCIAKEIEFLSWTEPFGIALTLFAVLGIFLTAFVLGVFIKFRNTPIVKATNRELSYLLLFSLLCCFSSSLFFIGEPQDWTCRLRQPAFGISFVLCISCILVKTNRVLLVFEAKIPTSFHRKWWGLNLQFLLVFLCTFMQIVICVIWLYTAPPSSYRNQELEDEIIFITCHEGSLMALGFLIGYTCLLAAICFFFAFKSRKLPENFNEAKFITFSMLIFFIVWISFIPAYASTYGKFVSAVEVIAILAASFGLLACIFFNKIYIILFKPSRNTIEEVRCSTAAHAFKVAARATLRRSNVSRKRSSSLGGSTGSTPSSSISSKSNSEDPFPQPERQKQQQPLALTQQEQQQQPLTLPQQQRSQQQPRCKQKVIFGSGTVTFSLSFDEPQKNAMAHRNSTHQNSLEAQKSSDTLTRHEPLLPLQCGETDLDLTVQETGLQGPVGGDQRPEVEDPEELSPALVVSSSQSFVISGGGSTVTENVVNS
Procedure, shortened: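 HEK293 cells transfected with human calcium receptor plasmid, loaded 1 h at 37 °C with about 5 μM fluo-3/AM. Cells then rinsed into HEPES-buffered HBSS with 1 mM CaCl2 and 1 mM MgCl2. Fluorescence read at 485/540 nm after compound addition.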

[1] = vehicle 10% cyclodextrin (** 1% sodium-CMC)

Row | SMILES | EC50 (human calcium receptor) | Plasma Ca^2+ (mmol/l) 1 hr (normal male SD rats; [1]) | Plasma Ca^2+ (mmol/l) 2 hr (normal male SD rats; [1]) | Plasma Ca^2+ (mmol/l) 4 hr (normal male SD rats; [1]) | Plasma Ca^2+ (mmol/l) 8 hr (normal male SD rats; [1]) | Plasma Ca^2+ (mmol/l) 24 hr (normal male SD rats; [1]) | Plasma Ca^2+ (mmol/l) 48 hr (normal male SD rats) | Plasma Ca^2+ (mmol/l) 0 hr (normal male SD rats; 0 hr = before oral administration of 30 μmol/kg, vehicle 10% cyclodextrin (** 1% sodium-CMC)) | Plasma Ca^2+ (mmol/l) 23 hr (footnote *c, 24 hr column) (normal male SD rats; [1]) | Plasma Ca^2+ (mmol/l) 31 hr (footnote *a, 48 hr column) (normal male SD rats; 31 hr after single oral dose 30 μmol/kg, 1% sodium-CMC)
1 | C[C@@H](NCCCCCCSc1ccc(Cl)cc1)c1cccc2ccccc12 [Compound K-2286, N-{6-[(4-chlorophenyl)thio]hexyl}-N-[(1R)-1-(1-naphthyl)ethyl]amine] | 620 nM | 1.318 mmol/L | 1.218 mmol/L | 1.088 mmol/L | 1.098 mmol/L | 1.390 mmol/L | 1.412 mmol/L | – | – | –
2 | C[C@@H](NCCCCSc1cc(Cl)ccc1Cl)c1cccc2ccccc12 [Compound K-2298, N-{4-[(2,5-dichlorophenyl)thio]butyl}-N-[(1R)-1-(1-naphthyl)ethyl]amine] | 340 nM | 1.348 mmol/L | 1.265 mmol/L | 1.187 mmol/L | 1.100 mmol/L | – | – | – | – | –
3 | Cc1ccc(SCCCCN[C@H](C)c2cccc3ccccc23)c(C)c1 [Compound K-2302, N-{4-[(2,4-dimethylphenyl)thio]butyl}-N-[(1R)-1-(1-naphthyl)ethyl]amine] | 500 nM | 1.238 mmol/L | 1.130 mmol/L | 0.978 mmol/L | 1.010 mmol/L | – | – | – | – | –
4 | C[C@@H](NCCCCCSc1ccc(F)cc1)c1cccc2ccccc12 [Compound K-2052, N-{5-[(4-fluorophenyl)thio]pentyl}-N-[(1R)-1-(1-naphthyl)ethyl]amine] | 5700 nM | 1.283 mmol/L | 1.187 mmol/L | 1.087 mmol/L | 1.185 mmol/L | – | – | – | – | –
5 | C[C@@H](NCCC(=O)N(Cc1ccc(Cl)c(Cl)c1)Cc1ccc(Cl)c(Cl)c1)c1cccc2ccccc12 [Compound K-2265, N1,N1-di(3,4-dichlorobenzyl)-3-{[(1R)-1-(1-naphthyl)ethyl]amino}propanamide] | 61 nM | 1.430 mmol/L | 1.363 mmol/L | 1.260 mmol/L | 1.218 mmol/L | – | – | – | – | –
6 | C[C@@H](NCCCCCSc1ccc(OC(F)(F)F)cc1)c1cccc2ccccc12 [Compound K-2288, N-[(1R)-1-(1-naphthyl)ethyl]-N-(5-{[4-(trifluoromethoxy)phenyl)thio]pentyl)amine] | 140 nM | 1.190 mmol/L | 1.057 mmol/L | 0.955 mmol/L | 0.905 mmol/L | 1.162 mmol/L | 1.387 mmol/L | – | – | –

Continued, in another order:

Row | EC50 (human calcium receptor) | SMILES | Plasma Ca^2+ (mmol/l) 1 hr (normal male SD rats; [1]) | Plasma Ca^2+ (mmol/l) 2 hr (normal male SD rats; [1]) | Plasma Ca^2+ (mmol/l) 4 hr (normal male SD rats; [1]) | Plasma Ca^2+ (mmol/l) 8 hr (normal male SD rats; [1]) | Plasma Ca^2+ (mmol/l) 24 hr (normal male SD rats; [1]) | Plasma Ca^2+ (mmol/l) 48 hr (normal male SD rats) | Plasma Ca^2+ (mmol/l) 0 hr (normal male SD rats; 0 hr = before oral administration of 30 μmol/kg, vehicle 10% cyclodextrin (** 1% sodium-CMC)) | Plasma Ca^2+ (mmol/l) 23 hr (footnote *c, 24 hr column) (normal male SD rats; [1]) | Plasma Ca^2+ (mmol/l) 31 hr (footnote *a, 48 hr column) (normal male SD rats; 31 hr after single oral dose 30 μmol/kg, 1% sodium-CMC)
7 | 52 nM | C[C@@H](NCCC(=O)N(Cc1ccc(OC(F)(F)F)cc1)Cc1ccc(Cl)c(Cl)c1)c1cccc2ccccc12 [Compound K-2272, N1-(3,4-dichlorobenzyl)-N1-[4-(trifluoromethoxy)benzyl)-3-{[(1R)-1-(1-naphthyl)ethyl]-amino}propanamide] | 1.382 mmol/L | 1.237 mmol/L | 1.075 mmol/L | 1.022 mmol/L | 1.240 mmol/L | – | – | – | –
8 | 36 nM | C[C@@H](NCCC(=O)N(Cc1ccc(Cl)cc1)Cc1ccc(C(F)(F)F)cc1)c1cccc2ccccc12 [Compound K-2266, N1-(4-chlorobenzyl)-N1-[(4-trifluoromethyl)benzyl]-3-{[(1R)-1-(1-naphthyl)ethyl]amino}propanamide] | 1.368 mmol/L | 1.222 mmol/L | 1.065 mmol/L | 1.045 mmol/L | 1.370 mmol/L | – | 1.417 mmol/L | – | –
9 | 150 nM | Cc1ccc(CN(Cc2ccc(C(F)(F)F)cc2)C(=O)CCN[C@H](C)c2cccc3ccccc23)cc1 [Compound K-2299, N1-(4-methylbenzyl)-N1-[4-(trifluoromethyl)benzyl]-3-{[(1R)-1-(1-naphthyl)ethyl]amino}propanamide] | 1.287 mmol/L | 1.192 mmol/L | 0.998 mmol/L | 0.983 mmol/L | – | – | – | 1.382*^c mmol/l | –
10 | 16 nM | C[C@@H](NCCC(=O)N(Cc1ccc(C(F)(F)F)cc1)Cc1ccc(Cl)c(Cl)c1)c1cccc2ccccc12 [Compound K-2264, N1-(3,4-dichlorobenzyl)-N1-[(4-trifluoromethyl)benzyl]-3-{[(1R)-1-(1-naphthyl)ethyl]-amino}propanamide] | 1.335 mmol/L | 1.203 mmol/L | 1.013 mmol/L | 0.998 mmol/L | 1.182 mmol/L | – | – | – | 1.240*^a mmol/l
11 | 14 nM | C[C@@H](NCCC(=O)N(Cc1ccc(Cl)cc1)Cc1ccc(Cl)c(Cl)c1)c1cccc2ccccc12 [Compound K-2267, N1-(4-chlorobenzyl)-N1-(3,4-dichlorobenzyl)-3-{[(1R)-1-(1-naphthyl)ethyl]amino}propanamide] | 1.347 mmol/L | 1.212 mmol/L | 1.027 mmol/L | 1.022 mmol/L | 1.312 mmol/L | – | – | – | –
12 | 140 nM | Cc1ccc(CN(Cc2ccc(C)cc2)C(=O)CCN[C@H](C)c2cccc3ccccc23)cc1 [Compound K-2300, N1,N1-di(4-methylbenzyl)-3-{[(1R)-1-(1-naphthyl)ethyl]amino}propanamide] | 1.293 mmol/L | 1.158 mmol/L | 0.958 mmol/L | 1.022 mmol/L | – | – | – | 1.397*^c mmol/l | –
13 | 130 nM | C[C@@H](NCCC(=O)N(Cc1ccccc1)Cc1ccc(Cl)cc1)c1cccc2ccccc12 [Compound K-2247, N1-benzyl-N1-(4-chlorobenzyl)-3-{[(1R)-1-(1-naphthyl)ethyl]amino}propanamide] | 1.378 mmol/L | 1.298 mmol/L | 1.175 mmol/L | 1.217 mmol/L | – | – | – | – | –
